Legend:
[1] = tested on: autistic children; test: CARS (Childhood Autism Rating Scale) test pre/post secretin in autistic children; format: in vivo, human; details: 16 autistic children
Description: Upon determining that a given child was likely to benefit from secretin administration based on the results of the fecal chymotrypsin test, the child was administered a CARS (Childhood Autism Rating Scale) test prior to being scheduled for secretin infusion.
(§1) For each of the 16 autistic children tested, a preferred secretin infusion process according to the present invention was performed involving the administering of 1 U/kg of body weight of Secretin-Ferring for a period of nine months at intervals of approximately 6 weeks. In addition, another CARS test was administered to each of the 16 autistic children 3 weeks post secretin administration to determine if their autism had changed post infusion.
A preferred secretin infusion process includes the initial step of prepping an arm of the candidate child with an IV injection of saline. A test dose of 1 U of Secretin-Ferring is then administered to the child. Approximately one minute after infusion, the child is examined for signs of allergic reaction including rash, increased heart rate, and increase of blood pressure. […] Subsequently, each child receives a 1 U/kg of body weight infusion of Secretin-Ferring approximately every 6 weeks for 9 months. It is to be understood that any commercially available form of secretin may be used.

[2] = tested on: children diagnosed with Autism; details: Horvath et al. 1998; secretin given as diagnostic procedure during upper gastrointestinal endoscopy; cited from earlier work
[3] = tested on: autistic children; test: Fecal Chymotrypsin Test after secretin infusion in autistic children; format: in vivo, human
Description: In this experiment, 16 children diagnosed as having autism were administered the following Fecal Chymotrypsin Test in accordance with an embodiment of the invention. First, approximately 2 grams of stool were collected from each child and placed in a sterile container (although it is to be understood that any quantity of stool may be collected, as 2 grams of stool is not a required amount). Each stool sample was then analyzed using, e.g., an enzymatic photospectrometry analysis as is known by those skilled in the art, to determine the level of fecal chymotrypsin in the stool. Although the enzymatic photospectrophotometry process is preferred, any suitable conventional method may be used for measuring the fecal chymotrypsin levels. The measured chymotrypsin levels of the 16 autistic children are illustrated in FIG. 13.
After determining the chymotrypsin levels of the stools, each of these levels were compared with threshold chymotrypsin levels to determine if the child was likely to benefit from secretin administration. By way of example, with the fecal chymotrypsin tests of the stool samples being performed at 30° C., normal levels of chymotrypsin are deemed to lie above 8.4 U/gram, whereas pathologically abnormal levels are deemed to lie below 4.2 U/gram. In addition, chymotrypsin levels between 8.4 U/gram and 4.2 U/gram are considered equivocal, and further testing of the individual's fecal chymotrypsin levels over a period of time should be performed.
as §1
A preferred secretin infusion process includes the initial step of prepping an arm of the candidate child with an IV injection of saline. A test dose of 1 U of Secretin-Ferring is then administered to the child. Approximately one minute after infusion, the child is examined for signs of allergic reaction including rash, increased heart rate, and increase of blood pressure. […] Subsequently, each child receives a 1 U/kg of body weight infusion of Secretin-Ferring approximately every 6 weeks for 9 months. […]
In this experiment, 37 autistic children with abnormal fecal chymotrypsin levels were administered secretin over the course of 6 months using the secretin infusion process described above. Their fecal chymotrypsin (FC) levels were measured weekly using the fecal chymotrypsin test described above.

## secretin
[1]; 3 weeks post secretin infusion
  CARS component scores (except fear): improvement
  CARS fear component score: increased
[1]; approx. 3 weeks after first secretin administration, 1 U/kg IV, vs pre-secretin
  CARS scores (overall): overall decrease
[2]
  symptoms associated with Autism after secretin administration: ameliorating the symptoms associated with Autism
[3]; each of 16 autistic children, approx. one week after first infusion, 1 U/kg IV Secretin-Ferring, vs pre-secretin (all abnormal)
  fecal chymotrypsin level post-secretin administration: increased
[3]; of 37 children, 6 months post-secretin, pre-secretin 0, equivocal 4.2-8.4 U/gram
  # Autistic Children w/Equivocal FC levels: 2
[3]; of 37 children, 6 months post-secretin, pre-secretin 0, normal above 8.4 U/gram
  # Autistic Children w/normal FC levels: 34
[3]; of 37 children, 6 months post-secretin, pre-secretin 37, abnormal below 4.2 U/gram
  # Autistic Children w/Abnormal FC levels: 1
